Test system: MV-4-11 cells
Assay: Gene expression microarray analysis (Affymetrix PrimeView) and GSEA
Type: cell-based, human
Parameters: RFU PODN (11730768_x_at) / Fold change /veh PODN (11730768_x_at) / RFU LINC00158 (11744669_a_at) / Fold change /veh LINC00158 (11744669_a_at) / RFU DUSP10 (11751237_a_at) / Fold change /veh DUSP10 (11751237_a_at) / RFU ID3 (11757404_x_at) / Fold change /veh ID3 (11757404_x_at) / RFU PLEKHG5 (11737974_s_at) / Fold change /veh PLEKHG5 (11737974_s_at) / RFU LRRC4B (11730491_at) / Fold change /veh LRRC4B (11730491_at) / RFU GIMAP4 (11747438_a_at) / Fold change /veh GIMAP4 (11747438_a_at) / RFU KRT8 (11758183_x_at) / Fold change /veh KRT8 (11758183_x_at) / RFU CNN1 (11734310_a_at) / Fold change /veh CNN1 (11734310_a_at) / RFU VPS37D (11726825_at) / Fold change /veh VPS37D (11726825_at) / RFU C10orf10 (11716522_x_at) / Fold change /veh C10orf10 (11716522_x_at) / RFU KIR2DL2 /// KIR2DL4 /// KIR2DL5A /// KIR2DL5B /// KIR2DS1 /// KIR2DS2 /// KIR2DS3 /// KIR2DS4 /// KIR3DL3 /// KIR3DL3 /// KIR3DS1 (11738374_at) / Fold change /veh KIR2DL2 /// KIR2DL4 /// KIR2DL5A /// KIR2DL5B /// KIR2DS1 /// KIR2DS2 /// KIR2DS3 /// KIR2DS4 /// KIR3DL3 /// KIR3DL3 /// KIR3DS1 (11738374_at) / RFU C1QL1 (11718748_at) / Fold change /veh C1QL1 (11718748_at) / RFU TMPRSS4 (11747572_a_at) / Fold change /veh TMPRSS4 (11747572_a_at) / RFU HAMP (11756126_x_at) / Fold change /veh HAMP (11756126_x_at) / RFU RNFT2 (11725882_a_at) / Fold change /veh RNFT2 (11725882_a_at) / RFU NR4A2 (11747474_a_at) / Fold change /veh NR4A2 (11747474_a_at) / RFU ABCC12 (11746883_a_at) / Fold change /veh ABCC12 (11746883_a_at) / RFU TMEM136 (11760407_x_at) / Fold change /veh TMEM136 (11760407_x_at) / RFU CLDN22 /// WWC2 (11732394_at) / Fold change /veh CLDN22 /// WWC2 (11732394_at) / RFU HLA-DPB1 (11760878_x_at) / Fold change /veh HLA-DPB1 (11760878_x_at) / RFU SPINT1 (11716480_a_at) / Fold change /veh SPINT1 (11716480_a_at) / RFU GAP43 (11754022_s_at) / Fold change /veh GAP43 (11754022_s_at) / RFU A4GNT (11735810_at) / Fold change /veh A4GNT (11735810_at) / RFU PRB3 (11715151_x_at) / Fold change /veh PRB3 (11715151_x_at) / RFU TUBB4B (11761932_at) / Fold change /veh TUBB4B (11761932_at) / RFU CAPN14 (11732068_a_at) / Fold change /veh CAPN14 (11732068_a_at) / RFU TMCC2 (11721928_a_at) / Fold change /veh TMCC2 (11721928_a_at) / RFU IRGQ (11745062_a_at) / Fold change /veh IRGQ (11745062_a_at) / RFU FAM174B (11720279_a_at) / Fold change /veh FAM174B (11720279_a_at) / RFU TMPRSS4 (11748680_a_at) / Fold change /veh TMPRSS4 (11748680_a_at) / RFU FAM212B (11763350_a_at) / Fold change /veh FAM212B (11763350_a_at) / RFU PLEKHG5 (11743358_a_at) / Fold change /veh PLEKHG5 (11743358_a_at) / RFU ZSCAN30 (11745921_a_at) / Fold change /veh ZSCAN30 (11745921_a_at) / RFU CMKLR1 (11741424_a_at) / Fold change /veh CMKLR1 (11741424_a_at) / RFU LOC101060620 /// MAPK8IP1 (11723275_at) / Fold change /veh LOC101060620 /// MAPK8IP1 (11723275_at) / RFU SPTSSB (11747773_x_at) / Fold change /veh SPTSSB (11747773_x_at) / RFU PRSS12 (11739890_at) / Fold change /veh PRSS12 (11739890_at) / RFU BIN1 (11741810_x_at) / Fold change /veh BIN1 (11741810_x_at) / RFU WNT11 (11732464_a_at) / Fold change /veh WNT11 (11732464_a_at) / RFU C10orf10 (11716521_a_at) / Fold change /veh C10orf10 (11716521_a_at) / RFU C5orf56 (11738089_at) / Fold change /veh C5orf56 (11738089_at) / RFU CYB561 (11721691_x_at) / Fold change /veh CYB561 (11721691_x_at) / RFU ANKRD19P (11752326_a_at) / Fold change /veh ANKRD19P (11752326_a_at) / RFU OR2T12 /// OR2T33 /// OR2T8 (11738714_s_at) / Fold change /veh OR2T12 /// OR2T33 /// OR2T8 (11738714_s_at) / RFU VCAN (11748164_a_at) / Fold change /veh VCAN (11748164_a_at) / RFU JSRP1 (11732532_at) / Fold change /veh JSRP1 (11732532_at) / RFU KRTAP10-11 (11738290_x_at) / Fold change /veh KRTAP10-11 (11738290_x_at) / RFU MYO3A (11730013_a_at) / Fold change /veh MYO3A (11730013_a_at) / RFU EBF3 (11725865_a_at) / Fold change /veh EBF3 (11725865_a_at) / RFU CAMK2N1 (11719241_x_at) / Fold change /veh CAMK2N1 (11719241_x_at) / RFU C5orf56 (11738088_a_at) / Fold change /veh C5orf56 (11738088_a_at) / RFU OLFML3 (11715873_a_at) / Fold change /veh OLFML3 (11715873_a_at) / RFU LOC100653217 /// NTM (11731650_a_at) / Fold change /veh LOC100653217 /// NTM (11731650_a_at) / RFU MAPK11 (11762145_a_at) / Fold change /veh MAPK11 (11762145_a_at) / RFU FIZ1 (11724087_x_at) / Fold change /veh FIZ1 (11724087_x_at) / RFU OASL (11726364_x_at) / Fold change /veh OASL (11726364_x_at) / RFU SOX15 (11748057_x_at) / Fold change /veh SOX15 (11748057_x_at) / RFU CD79A (11719716_a_at) / Fold change /veh CD79A (11719716_a_at) / RFU HIST1H1D (11736915_at) / Fold change /veh HIST1H1D (11736915_at) / RFU CASKIN2 (11723855_a_at) / Fold change /veh CASKIN2 (11723855_a_at) / RFU LOC730098 (11760151_x_at) / Fold change /veh LOC730098 (11760151_x_at) / RFU OR4N2 (11742367_at) / Fold change /veh OR4N2 (11742367_at) / RFU PRRT2 (11749266_a_at) / Fold change /veh PRRT2 (11749266_a_at) / RFU SNX32 (11753110_a_at) / Fold change /veh SNX32 (11753110_a_at) / RFU CDHR5 (11726645_a_at) / Fold change /veh CDHR5 (11726645_a_at) / RFU RCAN1 (11760418_a_at) / Fold change /veh RCAN1 (11760418_a_at) / RFU FAM167A (11723789_a_at) / Fold change /veh FAM167A (11723789_a_at) / RFU FAM26E (11764081_at) / Fold change /veh FAM26E (11764081_at) / RFU ISYNA1 (11749810_s_at) / Fold change /veh ISYNA1 (11749810_s_at) / RFU ACY1 (11761880_at) / Fold change /veh ACY1 (11761880_at) / RFU 11764098_at / Fold change /veh 11764098_at / RFU SAMD14 (11745864_x_at) / Fold change /veh SAMD14 (11745864_x_at) / RFU NPB (11741838_a_at) / Fold change /veh NPB (11741838_a_at) / RFU TMPRSS6 (11731388_a_at) / Fold change /veh TMPRSS6 (11731388_a_at) / RFU KRTAP10-2 (11738614_at) / Fold change /veh KRTAP10-2 (11738614_at) / RFU ARHGAP8 /// PRR5-ARHGAP8 (11727945_x_at) / Fold change /veh ARHGAP8 /// PRR5-ARHGAP8 (11727945_x_at) / RFU KRTAP5-7 /// NADSYN1 (11734609_at) / Fold change /veh KRTAP5-7 /// NADSYN1 (11734609_at) / RFU RASL12 (11751679_a_at) / Fold change /veh RASL12 (11751679_a_at) / RFU CDKN2B (11736163_a_at) / Fold change /veh CDKN2B (11736163_a_at) / RFU PRF1 (11729649_at) / Fold change /veh PRF1 (11729649_at) / RFU, ZNF638 /// ZNF638-IT1 / Fold change vs veh, ZNF638 /// ZNF638-IT1 / RFU, PANK3 / Fold change vs veh, PANK3 / RFU, SH3YL1 / Fold change vs veh, SH3YL1 / RFU, ZEB2 / Fold change vs veh, ZEB2 / RFU, NRIP1 / Fold change vs veh, NRIP1 / RFU, PTTG1IP / Fold change vs veh, PTTG1IP / RFU, CAPN2 / Fold change vs veh, CAPN2 / RFU, MED14 / Fold change vs veh, MED14 / RFU, SNORA58 / Fold change vs veh, SNORA58 / RFU, C1orf63 / Fold change vs veh, C1orf63 / RFU, LRRFIP1 / Fold change vs veh, LRRFIP1 / RFU, NDUFAF7 / Fold change vs veh, NDUFAF7 / RFU, SLC12A2 / Fold change vs veh, SLC12A2 / RFU, IBTK / Fold change vs veh, IBTK / RFU, ESF1 / Fold change vs veh, ESF1 / Fold change vs veh, TMEM50B / RFU, TAOK1 / Fold change vs veh, TAOK1 / RFU, ACBD3 / Fold change vs veh, ACBD3 / RFU, TMA16 / Fold change vs veh, TMA16 / RFU, RWDD3 / Fold change vs veh, RWDD3 / RFU, BCAT1 / Fold change vs veh, BCAT1 / RFU, EDEM3 / Fold change vs veh, EDEM3 / RFU, TMEM33 / Fold change vs veh, TMEM33 / RFU, WDR75 / Fold change vs veh, WDR75 / RFU, AHCTF1 / Fold change vs veh, AHCTF1 / RFU, TFRC / Fold change vs veh, TFRC / RFU, ZDHHC17 / Fold change vs veh, ZDHHC17 / RFU, NOM1 / Fold change vs veh, NOM1 / RFU, ARL8B / Fold change vs veh, ARL8B / RFU, ZBTB11 / Fold change vs veh, ZBTB11 / RFU, TAMM41 / Fold change vs veh, TAMM41 / RFU, KIAA1704 /// LOC100996395 / Fold change vs veh, KIAA1704 /// LOC100996395 / RFU, ING1 / Fold change vs veh, ING1 / RFU, TRMT61B / Fold change vs veh, TRMT61B / RFU, FUBP3 / Fold change vs veh, FUBP3 / RFU, TP53 / Fold change vs veh, TP53 / RFU, TNKS2 / Fold change vs veh, TNKS2 / RFU, ZFP14 / Fold change vs veh, ZFP14 / RFU, ACTR2 / Fold change vs veh, ACTR2 / RFU, PPP3R1 / Fold change vs veh, PPP3R1 / RFU, PIK3R1 / Fold change vs veh, PIK3R1 / RFU, HNRNPA1 / Fold change vs veh, HNRNPA1 / RFU, RNF170 / Fold change vs veh, RNF170 / RFU, ZNF28 / Fold change vs veh, ZNF28 / RFU, RNGTT / Fold change vs veh, RNGTT / RFU, OGT / Fold change vs veh, OGT / RFU, BRD1 / Fold change vs veh, BRD1 / RFU, MARS / Fold change vs veh, MARS / RFU, ZNF655 / Fold change vs veh, ZNF655 / RFU, FAHD1 / Fold change vs veh, FAHD1 / RFU, BDP1 / Fold change vs veh, BDP1 / RFU, LRRCC1 / Fold change vs veh, LRRCC1 / RFU, ARID1A / Fold change vs veh, ARID1A / RFU, ZNF146 / Fold change vs veh, ZNF146 / RFU, ZNF330 / Fold change vs veh, ZNF330 / RFU, GPN3 / Fold change vs veh, GPN3 / RFU, C9orf123 / Fold change vs veh, C9orf123 / RFU, N4BP2L2 / Fold change vs veh, N4BP2L2 / RFU, ARFIP1 / Fold change vs veh, ARFIP1 / RFU, FAM179B / Fold change vs veh, FAM179B / RFU, BCL10 / Fold change vs veh, BCL10 / RFU, UHRF1BP1L / Fold change vs veh, UHRF1BP1L / RFU, BET1 / Fold change vs veh, BET1 / RFU, CNOT2 / Fold change vs veh, CNOT2 / RFU, ZNF268 / Fold change vs veh, ZNF268 / Fold change vs veh, ZNF507 / RFU, DGCR2 / Fold change vs veh, DGCR2 / RFU, WDSUB1 / Fold change vs veh, WDSUB1 / Fold change vs veh, HSP90B1 /// MIR3652 / RFU, ADSS / Fold change vs veh, ADSS / RFU, GK / Fold change vs veh, GK / RFU, ZNF148 / Fold change vs veh, ZNF148 / RFU, TAF9 / Fold change vs veh, TAF9 / RFU, SLC1A5 / Fold change vs veh, SLC1A5 / RFU, SLMO2 / Fold change vs veh, SLMO2 / RFU, ABCC4 / Fold change vs veh, ABCC4 / RFU, LOC101060439 /// RAP1B / Fold change vs veh, LOC101060439 /// RAP1B / RFU, RFX7 / Fold change vs veh, RFX7 / RFU, GTPBP10 / Fold change vs veh, GTPBP10 / RFU, CNEP1R1 / Fold change vs veh, CNEP1R1 / RFU, BIVM-ERCC5 /// ERCC5 / Fold change vs veh, BIVM-ERCC5 /// ERCC5 / RFU, ILF3 / Fold change vs veh, ILF3 / RFU 11762660_at / Fold change /veh 11762660_at / RFU VCAN (11757783_s_at) / Fold change /veh VCAN (11757783_s_at) / RFU DDX43 (11728927_at) / Fold change /veh DDX43 (11728927_at) / RFU KRT8 (11758188_x_at) / Fold change /veh KRT8 (11758188_x_at) / RFU NKD1 (11759106_at) / Fold change /veh NKD1 (11759106_at) / RFU SRD5A1 (11742802_a_at) / Fold change /veh SRD5A1 (11742802_a_at) / RFU TPSAB1 /// TPSB2 (11721975_s_at) / Fold change /veh TPSAB1 /// TPSB2 (11721975_s_at) / RFU GSTM3 (11746129_a_at) / Fold change /veh GSTM3 (11746129_a_at) / RFU IL23R (11737362_x_at) / Fold change /veh IL23R (11737362_x_at) / RFU TMEM51 (11727254_a_at) / Fold change /veh TMEM51 (11727254_a_at) / RFU PIWIL2 (11732686_x_at) / Fold change /veh PIWIL2 (11732686_x_at) / RFU ORM1 (11744905_x_at) / Fold change /veh ORM1 (11744905_x_at) / RFU CCDC152 (11743942_at) / Fold change /veh CCDC152 (11743942_at) / RFU ECM1 (11717891_a_at) / Fold change /veh ECM1 (11717891_a_at) / RFU IL23R (11748794_a_at) / Fold change /veh IL23R (11748794_a_at) / RFU TNFAIP8L3 (11732012_x_at) / Fold change /veh TNFAIP8L3 (11732012_x_at) / RFU MBOAT4 (11741988_at) / Fold change /veh MBOAT4 (11741988_at) / RFU 11764193_at / Fold change /veh 11764193_at / RFU TMEM53 (11763286_at) / Fold change /veh TMEM53 (11763286_at) / RFU MAGEB2 (11727129_at) / Fold change /veh MAGEB2 (11727129_at) / RFU TMEM200A (11744735_a_at) / Fold change /veh TMEM200A (11744735_a_at) / RFU CCDC152 (11751479_a_at) / Fold change /veh CCDC152 (11751479_a_at) / RFU FAM211A (11726209_a_at) / Fold change /veh FAM211A (11726209_a_at) / RFU RGS16 (11746705_a_at) / Fold change /veh RGS16 (11746705_a_at) / RFU VCAN (11755009_s_at) / Fold change /veh VCAN (11755009_s_at) / RFU RHOB (11743442_s_at) / Fold change /veh RHOB (11743442_s_at) / RFU RGS16 (11720943_a_at) / Fold change /veh RGS16 (11720943_a_at) / RFU RGS16 (11720944_at) / Fold change /veh RGS16 (11720944_at) / RFU, VPS4B / Fold change vs veh, VPS4B / RFU, CREB1 / Fold change vs veh, CREB1 / RFU, DNAJC13 / Fold change vs veh, DNAJC13 / RFU, GNAQ / Fold change vs veh, GNAQ / RFU, CDK5R1 / Fold change vs veh, CDK5R1 / RFU, ZRANB3 / Fold change vs veh, ZRANB3 / RFU, CUL4A / Fold change vs veh, CUL4A / RFU, CCNY / Fold change vs veh, CCNY / RFU, UFL1 / Fold change vs veh, UFL1 / RFU, COG3 / Fold change vs veh, COG3 / RFU, DIAPH2 / Fold change vs veh, DIAPH2 / RFU, SKA2 / Fold change vs veh, SKA2 / RFU, AFF3 / Fold change vs veh, AFF3 / RFU, LMF1 / Fold change vs veh, LMF1 / RFU, IPO11 / Fold change vs veh, IPO11 / RFU, DFFB / Fold change vs veh, DFFB / RFU, FOXP1 / Fold change vs veh, FOXP1 / RFU, CARD8 / Fold change vs veh, CARD8 / RFU, STRN3 / Fold change vs veh, STRN3 / RFU, ADK / Fold change vs veh, ADK / RFU, RASSF2 / Fold change vs veh, RASSF2 / RFU, WIPF1 / Fold change vs veh, WIPF1 / RFU, LARP1B / Fold change vs veh, LARP1B / RFU, RASA1 / Fold change vs veh, RASA1 / RFU, RB1 / Fold change vs veh, RB1 / RFU, PPFIA1 / Fold change vs veh, PPFIA1 / RFU, MAT2A / Fold change vs veh, MAT2A / RFU, CCT5 / Fold change vs veh, CCT5 / RFU, WDR92 / Fold change vs veh, WDR92 / RFU, CUX1 / Fold change vs veh, CUX1 / RFU, TTC7A / Fold change vs veh, TTC7A / RFU, TMEM135 / Fold change vs veh, TMEM135 / RFU, DEPTOR / Fold change vs veh, DEPTOR / RFU, CPM / Fold change vs veh, CPM / RFU, DNAJB6 / Fold change vs veh, DNAJB6 / RFU, CACNA2D3 / Fold change vs veh, CACNA2D3 / RFU, DTX4 / Fold change vs veh, DTX4 / RFU, TFCP2 / Fold change vs veh, TFCP2 / RFU, GMCL1 /// GMCL1P1 / Fold change vs veh, GMCL1 /// GMCL1P1 / RFU, AEBP2 / Fold change vs veh, AEBP2 / RFU, SNHG1 /// SNORD22 /// SNORD25 /// SNORD26 /// SNORD27 /// SNORD28 /// SNORD29 /// SNORD31 / Fold change vs veh, SNHG1 /// SNORD22 /// SNORD25 /// SNORD26 /// SNORD27 /// SNORD28 /// SNORD29 /// SNORD31 / Fold change (Aza/veh), C12orf56 (ProbeSet 11735607_a_at) / Fold change (ACY-1035/veh), C12orf56 (ProbeSet 11735607_a_at) / Fold change (Aza/veh), FGFR1OP (ProbeSet 11751329_s_at) / Fold change (ACY-1035/veh), FGFR1OP (ProbeSet 11751329_s_at) / Fold change (Aza/veh), VPS36 (ProbeSet 11739960_a_at) / Fold change (ACY-1035/veh), VPS36 (ProbeSet 11739960_a_at) / RFU SYPL1 (11715823_x_at) / Fold change /veh SYPL1 (11715823_x_at) / RFU IGFBP7 (11715501_s_at) / Fold change /veh IGFBP7 (11715501_s_at) / RFU REEP3 (11722064_at) / Fold change /veh REEP3 (11722064_at) / RFU IGLL1 (11728026_x_at) / Fold change /veh IGLL1 (11728026_x_at): dose or concentration left out as unconfirmed
Settings: MV-4-11 cells, 48 hours

## Nc1ccc(-c2cccs2)cc1NC(=O)c1ccc2c(c1)cc(C1CC1)n2CCN1CCOCC1 [ACY-1035]
  RFU SRD5A1 (11742802_a_at): 49.09 RFU
